Data reported in publication PMC11851430, “Workflow for E3 Ligase Ligand Validation for PROTAC Development” (ACS Chemical Biology, 2025).

Columns and labels:
[1] = target: T1, kinase protein levels in MCF-7 cells (Homo sapiens, UniProt A0A096LP01); assay: TMT-labeled quantitative proteomics; format: cell-based; settings: protein LINC00493; MCF7; 1 µM; set5
T1 construct: endogenous in cells; host or cells: MCF-7
Procedure: (§1) 50 µl of SDS Lysis Buffer (2% SDS, 50 mM TRIS pH 8.5, 10 mM TCEP, 40 mM CAA) was added to each sample. Cells were transferred into low binding reaction tubes (Eppendorf:
(§2) Methanol/Chloroform Precipitation. 200 µl of methanol and 50 µl of chloroform were added to each sample reaction tube and mixed via vortex. 150 µl of milliQ-H2O were added and samples were vortexed further. Samples were centrifuged for 5 minutes at 15000 g and the aqueous layer above the interphase was removed. 150 µl of methanol was added, samples were vortexed and centrifuged for 10 minutes at 15000 g to precipitate the pellet. The aforementioned wash procedure was repeated twice before transferring the pellet to a new low bind reaction tube in which it was allowed to dry for 5 minutes.
(§3) Dissolving the Protein Pellet and Protein Quantification. 50 µl of digestion buffer (8 M Urea, 50 mM TRIS pH 8) was added to each sample before vortexing and shaking at 750 rpm at room temperature for 10 minutes to solubilize the pellet. Protein quantification via PierceTM […]
(§4) Protein Digestion. Samples were diluted 1:2 with 50 mM TRIS pH 8.5 to reach a final concentration of 4 M Urea. Lys-C (Promega: VA1170) was added at a 1:100 enzyme/substrate ratio. Samples were agitated at 550 rpm and 37 °C for 3 h. Samples were further diluted with 50 mM TRIS pH 8.5 to a final concentration of 1 M Urea and Trypsin (Promega: V5280) was added at a 1:100 enzyme/substrate ratio. Samples were agitated overnight at 550 rpm and 37 °C. The digestion was stopped the following day via addition of TFA to a final concentration […]
(§5) Solid Phase Extraction via C18 Cartridges. Sep-Pak C18 Cartridges (Waters: WAT054955) were used for solid phase extraction of digested peptides. For preconditioning of C18 cartridges, 1 mL of methanol was added to each column followed by 1 mL of solution B (0.1% formic acid, 80% acetonitrile) and 1 mL of solution A (0.1% formic acid, ddH2O) twice. Samples […]
(§6) were loaded to their respective columns and once samples had passed, columns were washed twice with solution A to remove unwanted components from the loading step. Elution of samples was carried out via introduction of 40% and 60% acetonitrile steps. Samples were dried and snap frozen in liquid nitrogen.
(§7) TMT-Labeling. Desalted peptides were dried and resuspended in TMT-labeling buffer (200 mM EPPS pH 8.2, 20% acetonitrile). 10 μg of peptides per condition were subjected to TMT labeling with 1:2.5 peptide TMT ratio (w/w) for 1 h at room temperature. The labeling reaction was quenched by addition of hydroxylamine to a final concentration of 0.5% and incubation at room temperature for 15 minutes. Successful TMT labeling was verified by mixing equimolar ratios of peptides and subjecting the mix to single shot LC-MS/MS analysis. For high pH reversed phase fractionation on a Dionex analytical HPLC, 50 µg of pooled and purified TMT labelled samples were resuspended in 10 mM ammonium-bicarbonate (ABC), 5% acetonitrile, and separated on a 250 mm long C18 column (Aeris Peptide XB-C18, 4.6 mm ID, 2.6 µm particle size; Phenomenex) using a multistep gradient from 100% solvent A (5% acetonitrile, 10 mM ABC in water) to 60% solvent B (90% acetonitrile, 10 mM ABC in water) over 70 minutes. Eluting peptides were collected every 45 seconds into a total of 96 fractions, which were cross-concatenated into 24 fractions and dried in a vacuum concentrator and resuspended in 3% acetonitrile with 0.1% TFA for LC-MS analysis.
(§8) Mass spectrometry data acquisition. Tryptic peptides were analyzed on an Orbitrap Lumos coupled to an easy nLC 1200 (ThermoFisher Scientific) using a 35 cm long, 75 µm ID fused-silica column packed in house with 1.9 µm C18 particles (Reprosil pur, Dr. Maisch), and kept at 50 °C using an integrated column oven (Sonation). HPLC solvents consisted of 0.1% formic acid in water (buffer A) and 0.1% formic acid and 80% acetonitrile in water (buffer B). Assuming

[2] = system: kinase protein levels in MCF-7 cells; assay: TMT-labeled quantitative proteomics; format: cell-based, human; settings: for kinase degradation: MCF-7 cells, 1 μM, 6 h; for log2FC (compound/DMSO): MCF7, 1 µM, set5
Procedure: as §1, §2, §3, §4, §5, §6, §7, §8

[3] = target: T2, kinase protein levels in MCF-7 cells (Homo sapiens, UniProt Q9BTL3); assay: TMT-labeled quantitative proteomics; format: cell-based; settings: protein FAM103A1; MCF7; 1 µM; set5
T2 construct: endogenous in cells; host or cells: MCF-7
T2 sequence (Q9BTL3 whole entry): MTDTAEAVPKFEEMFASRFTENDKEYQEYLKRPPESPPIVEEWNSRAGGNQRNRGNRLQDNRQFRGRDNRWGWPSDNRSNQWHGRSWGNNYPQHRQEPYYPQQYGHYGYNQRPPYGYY
Procedure: as §1, §2, §3, §4, §5, §6, §7, §8

[4] = target: T3, AURKA (Homo sapiens, UniProt O14965); assay: NanoBRET target engagement assay, intact and permeabilized cells; settings: mean of duplicates, ^a values estimated by extrapolation
T3 sequence (O14965 1-403): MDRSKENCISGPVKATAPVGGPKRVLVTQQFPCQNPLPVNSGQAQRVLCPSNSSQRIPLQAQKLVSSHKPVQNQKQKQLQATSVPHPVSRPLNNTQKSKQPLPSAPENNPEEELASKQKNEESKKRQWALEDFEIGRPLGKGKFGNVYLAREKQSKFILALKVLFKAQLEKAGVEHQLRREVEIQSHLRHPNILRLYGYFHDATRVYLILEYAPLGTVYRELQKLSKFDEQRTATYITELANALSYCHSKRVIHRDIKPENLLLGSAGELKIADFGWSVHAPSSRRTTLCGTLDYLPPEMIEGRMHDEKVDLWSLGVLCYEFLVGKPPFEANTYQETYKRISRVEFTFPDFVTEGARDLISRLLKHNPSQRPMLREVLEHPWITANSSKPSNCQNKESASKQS

[5] = target: VHL (Homo sapiens, UniProt P40337); assay: cell-based; set-up: full-length, NanoLuc fusion (Promega N2741); species or system HEK293T; NanoBRET VHL tracer displacement in permeabilized cells, NanoLuc-VHL fusion; settings: permeabilized cells; read-out: VHL permeabilized (IC50±sd)/µM
Chain of VHL (P40337 whole entry, the tested form may be a part): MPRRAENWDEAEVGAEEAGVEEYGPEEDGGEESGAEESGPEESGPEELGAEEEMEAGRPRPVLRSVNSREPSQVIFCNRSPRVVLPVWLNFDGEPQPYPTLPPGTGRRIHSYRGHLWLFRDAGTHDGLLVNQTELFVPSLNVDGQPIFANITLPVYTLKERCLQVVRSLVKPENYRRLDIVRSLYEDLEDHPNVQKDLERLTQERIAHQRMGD

[6] = target: full-length AAK1 (Homo sapiens, UniProt Q2M2I8); assay: NanoBRET target engagement assay, intact and permeabilized cells
Chain of full-length AAK1 (Q2M2I8 whole entry): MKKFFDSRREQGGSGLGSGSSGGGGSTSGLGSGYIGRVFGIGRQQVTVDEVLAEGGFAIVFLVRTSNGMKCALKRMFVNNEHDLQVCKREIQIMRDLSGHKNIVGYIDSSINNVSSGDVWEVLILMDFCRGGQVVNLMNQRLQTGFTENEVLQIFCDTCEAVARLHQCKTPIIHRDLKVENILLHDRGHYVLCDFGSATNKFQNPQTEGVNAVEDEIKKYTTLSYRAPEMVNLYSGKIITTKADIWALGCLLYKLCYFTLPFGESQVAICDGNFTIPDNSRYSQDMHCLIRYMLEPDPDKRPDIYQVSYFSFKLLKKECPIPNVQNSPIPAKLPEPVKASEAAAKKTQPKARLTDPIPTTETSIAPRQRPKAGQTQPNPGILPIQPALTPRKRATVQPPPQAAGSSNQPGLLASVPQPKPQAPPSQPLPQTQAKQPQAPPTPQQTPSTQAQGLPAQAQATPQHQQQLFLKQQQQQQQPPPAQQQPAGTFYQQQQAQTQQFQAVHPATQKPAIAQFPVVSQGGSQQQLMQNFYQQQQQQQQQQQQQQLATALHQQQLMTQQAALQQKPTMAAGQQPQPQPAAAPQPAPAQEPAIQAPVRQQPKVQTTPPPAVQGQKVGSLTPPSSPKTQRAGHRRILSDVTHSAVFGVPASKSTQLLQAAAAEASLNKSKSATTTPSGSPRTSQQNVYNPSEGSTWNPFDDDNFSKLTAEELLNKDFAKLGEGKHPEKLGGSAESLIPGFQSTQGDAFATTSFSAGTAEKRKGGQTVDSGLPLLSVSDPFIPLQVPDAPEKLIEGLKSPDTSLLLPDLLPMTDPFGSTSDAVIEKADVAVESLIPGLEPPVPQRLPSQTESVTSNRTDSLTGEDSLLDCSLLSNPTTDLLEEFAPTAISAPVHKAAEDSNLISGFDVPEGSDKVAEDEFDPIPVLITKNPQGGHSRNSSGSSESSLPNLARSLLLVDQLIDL
Procedure: Compounds were pipetted at various concentrations using an Echo acoustic dispenser (Labcyte), immediately followed by Tracer K10 (Promega, Tracer DB ID: T000008) for AAK1 and Aurora A and VHL Tracer (Promega, Tracer DB ID: T000019) for VHL, at an optimum KD concentration chosen from TracerDB ( tracerdb.org), respectively.
To measure the BRET signal, the NanoBRET® NanoGlo Substrate (Promega:
N1573) was added as per the manufacturer’s protocol, and filtered luminescence was measured on a PHERAstar plate reader (BMG Labtech) equipped with a luminescence filter pair (450 nm BP filter (donor) and 610 nm LP filter (acceptor)). For NanoBRET® measurement in permeabilized cells, 25 nL of digitonin (0.05 μg/μL) was pipetted into each well using an
After incubation, the BRET signals were measured by a PHERAstar plate reader (BMG Labtech) following the same procedure as intact NanoBRET® measurement. Competitive displacement data were then normalized to controls and were plotted using GraphPad Prism 9 software employing a normalized 3-parameter curve fit with the following equation:

[7] = system: Jurkat cells; assay: CellTiterGlo cell viability assay; format: cell-based, human; settings: 24 h
Procedure: The effects of the compounds on cell viability was determined using the CellTiter-Glo® 2.0 Cell Viability Assay (Promega: G9241) following manufacturer’s protocol. Ten µL of Jurkat cells at […]
After equilibration, PROTACs were titrated at various concentrations using an Echo acoustic […]
volume of CellTiter-Glo® 2.0 reagent (10 µL) was added to each well and cells were incubated for 10 minutes at room temperature. Filtered luminescence was measured on a PHERAstar plate reader (BMG Labtech) and data was evaluated using GraphPad Prism 9 software employing a normalized curve it with the following equation: Y=Bottom + (Top-Bottom)/(1+10(LogEC50-X) *HillSlope).
Sample preparation. Jurkat cells (ATCC © HTB-22) were cultured in RPMI (Thermo: […]

[8] = protein NBPF19;NBPF15;NBPF8;NBPF10;NBPF3;NBPF11;NBPF26;NBPF14;NBPF1;NBPF12
[9] = AURKA intact (IC50±sd)/μM, intact cells
[10] = AURKA permeabilized (IC50±sd)/μM, permeabilized cells
[11] = AAK1 intact (IC50±sd)/μM, NanoBRET, intact cells, mean of duplicates, ^a values estimated by extrapolation
[12] = AAK1 permeabilized (IC50±sd)/μM, NanoBRET, permeabilized cells, mean of duplicates

T1 sequence (A0A096LP01 whole entry): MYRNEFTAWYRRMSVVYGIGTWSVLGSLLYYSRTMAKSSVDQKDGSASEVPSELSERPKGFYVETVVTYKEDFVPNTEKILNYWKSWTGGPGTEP

SMILES: Cc1ncsc1-c1ccc(CNC(=O)[C@@H]2C[C@@H](O)CN2C(=O)[C@@H](NC(=O)CCOCCOCCN2CCN(c3ccc(Nc4ncc(Cl)c(Nc5ccccc5C(N)=O)n4)cc3)CC2)C(C)(C)C)cc1 [6-a]
- P.Value (compound/DMSO) [1]: 0.02321
- log2FC (compound/DMSO) [1]: -0.4581
- kinase degradation [2]: significant degradation of several kinases
- log2FC (compound/DMSO) ([2]; protein ARHGEF5;ARHGEF35): 0.1364
- log2FC (compound/DMSO) [2, 8]: -0.2637
- P.Value (compound/DMSO) [3]: 0.2865
- log2FC (compound/DMSO) [3]: 0.1658
- IC50 [4, 9]: 0.203 ± 0.01 µM
- IC50 [4, 10]: 0.105 ± 0.007 µM
- IC50 [5]: 1.123 ± 0.005 µM
- IC50 [6, 11]: 0.088 ± 0.003 µM
- IC50 [6, 12]: 0.028 ± 0.001 µM
- effect on cell viability (cytotoxicity) [7]: particularly pronounced effects on cell viability
- IC50 ([7]; Homo sapiens, mean of triplicates, ^b/^c values estimated, read-out: IC50±sd/μM (cell viability)): ~0.8 µM

SMILES: Cc1ncsc1-c1ccc(CNC(=O)[C@@H]2C[C@@H](O)CN2C(=O)[C@@H](NC(=O)CCOCCOCCOCCOCCOCCOCCN2CCN(c3cc(Nc4cc(C5CC5)[nH]n4)nc(Nc4ccc(CC#N)cc4)n3)CC2)C(C)(C)C)cc1 [4-b]
- P.Value (compound/DMSO) [1]: 0.7132
- log2FC (compound/DMSO) [1]: 0.05687
- kinase degradation [2]: did not result in significant degradation of any kinase
- log2FC (compound/DMSO) ([2]; protein ARHGEF5;ARHGEF35): 0.1142
- log2FC (compound/DMSO) [2, 8]: 0.1563
- P.Value (compound/DMSO) [3]: 0.9701
- log2FC (compound/DMSO) [3]: 0.005351
- IC50 [4, 9]: ~18.9 µM
- IC50 [4, 10]: 4.84 ± 2.01 µM
- IC50 [5]: 0.97 ± 0.013 µM
- IC50 [6, 11]: ~1.84 µM
- IC50 [6, 12]: 0.081 µM
- AAK1 intact (IC50±sd)/μM ([6]; NanoBRET, intact cells, mean of duplicates, ^a values estimated by extrapolation): single-digit micromolar
- cell permeability / cell penetration ([6]; as shown by the NanoBRET data (intact vs permeabilized cells)): Inefficient cell penetration
